# Source: patent US4455315A, “N-(Difluoromethoxy substituted phenyl)-dichloromaleimides used in agricultural and horticultural fungicidal methods” (Showa Denko Kabushiki Kaisha, priority 1980, dated 1984)
# Columns and labels:
# plant pathogens = settings: U.S. Pat. No. 2,444,536; cited from earlier work
# [1] = test system: potted young oranges (variety: Unshu); assay: Phytotoxicity of treating compound, Citrus Scab test; settings: 250 ppm
# Experimental: (§1) The resulting solution is sprayed, in an amount corresponding to 600 l/10a per pot, on potted young oranges (variety: Unshu) immediately after fresh leaves are unfolded. After one day, the potted young oranges are inoculated with Elsinoe fawcetti, by spraying a suspension of crushed hyphae thereof containing 50 crushed hyphae per microscopic field (magnification: X100). The suspension is prepared by culturing Elsinoe fawcetti on potato medium at a temperature of 25° C. for 30 days to form hyphae and suspending it in sterilized water.
# (§2) After inoculation, the potted young oranges are allowed to stand at a temperature of 25° C. in a moist room for two days and then transferred to a greenhouse. Twenty-three days after inoculation, the leaf infested by citrus scab is examined, i.e., number of pathologic spots on a leaf is examined and the numbers of leaves infested by cirtrus scab are counted. Then, an infestation rate is calculated according to the following equation:
# [2] = test system: potted apples (variety: Star King); assay: Phytotoxicity of treating compound, Apple Scab test; settings: 500 ppm
# Elsinoe fawcetti = assay: Citrus Scab-controlling Test; settings: 250 ppm; for Infested Leaves (%): 23 days after inoculation; for Infestation Rate: 23 days, (Σnf/3N)×100; for Number of Leaves Showing Each Infestation Index: 0: index 0 = 0 spots per leaf; for Number of Leaves Showing Each Infestation Index: 1: index 1 = 1-3 spots per leaf; for Number of Leaves Showing Each Infestation Index: 2: index 2 = 4-10 spots per leaf; for Number of Leaves Showing Each Infestation Index: 3: index 3 = ≥11 spots per leaf
# Experimental: as §1, §2
# Infestation Rate=(Σnf/3N)×100
# wherein n is the number of the infested leaves, f is an infestation index and N is the total number of the examined leaves. The infestation index is as follows.
# For comparison, the above test is also carried out using a reference compound (benomyl) and plain water.
# Venturia inaequalis = assay: Apple Scab-controlling Test; assay type: in vivo; settings: 500 ppm; for Infested Leaves (%): seven days after inoculation; for Infestation Rate: seven days, (Σnf/3N)×100; for Number of Leaves Showing Each Infestation Index: 0: index 0 = 0% infested area; for Number of Leaves Showing Each Infestation Index: 1: index 1 = 1-25% infested area; for Number of Leaves Showing Each Infestation Index: 2: index 2 = 26-50% infested area; for Number of Leaves Showing Each Infestation Index: 3: index 3 = 51-100% infested area
# [3] = test system: potted young oranges (variety: Unshu); assay: Phytotoxicity of treating compound, Citrus Melanose test; settings: 500 ppm
# [4] = test system: potted young oranges (variety: Unshu); assay: Phytotoxicity of treating compound, residual activity test; settings: 1000 ppm, 23 mm/hr of rain
# [5] = test system: potted apples (variety: Star King); assay: Test of Phytotoxicity to Apples; settings: 75% Wettable Powders, dilution × 750, 600 l/10 a, two weeks
# Experimental: The resulting solution of wettable powders is sprayed, in an amount corresponding to 600 l/10a per pot, on potted apples (variety: Star King) immediately after fresh leaves are unfolded. After air-drying, the potted apples are allowed to stand in a greenhouse. Two weeks after the spray treatment, the phytotoxicity, of the compound according to the present invention, to the potted apples is examined.
# For comparison, the above test is also carried out using a reference compound (fluoroimide) and plain water.
# [6] = test system: potted potatoes (variety: Chippewa); settings: 500 ppm
# peroral acute toxicity = settings: in vivo, po, four-week-old male mouse
# [7] = test system: Pseudoperonospora cubensis; assay: Cucumber Downy Mildew-controlling Test; assay type: in vivo; settings: 1000 ppm, five days after inoculation
# Source text: Cucumber Downy Mildew (Pseudoperonospora cubensis)-controlling Test […] After one day, the cucumbers are inoculated with Pseudoperonospora cubensis, by spraying a suspension thereof containing 30 spores per microscopic field (magnification: […]), which are collected from the leaves infested by cucumber downy mildew. […] In this test, one cucumber is planted in each pot and three pots are used.
# Alternaria mali = assay: Apple Alternaria Leaf Spot-controlling Test; assay type: in vivo; settings: 500 ppm, six days after inoculation
# [8] = test system: potted pears (variety: Niju-seiki); assay: Test of Phytotoxicity to Pears; assay type: in vivo, pear; settings: 75% Wettable Powders, two weeks
# Source text: Test of Phytotoxicity to Pears
# After air-drying, the potted pears are allowed to stand in a greenhouse.
# TA-98 = assay: mutagenicity test (Ames test), TA-98; assay type: cell-based
# Alternaria kikuchiana [9] = assay: Pear Black Spot-controlling Test; settings: 500 ppm, six days after inoculation
# Experimental: Pear Black Spot (Alternaria kikuchiana)-controlling Test
# (§3) The resulting solution is sprayed on unfolded leaves of potted young pears (variety: Niju-seiki) in an amount corresponding to 600 l/10a per pot. After air-drying, the unfolded leaves are inoculated with Alternaria kikuchiana, by spraying a suspension of conidia thereof containing 30 conidia per microscopic field (magnification: X200).
# (§4) After inoculation, the potted young pears are allowed to stand at a temperature of 27° C. in a moist room for one day and then transferred to a greenhouse. Six days after inoculation, the leaf area infested by pear black spot, i.e., the area of pathologic spots on a leaf is examined on 5 unfolded leaves per pot and an average infestation rate is then calculated.
# Phytophthora infestans = assay type: in vivo; settings: 500 ppm; for Infested Leaves (%): six days after inoculation; for Infestation Rate: six days, (Σnf/3N)×100; for Number of Leaves Showing Each Infestation Index: 0: index 0 = 0% infested area; for Number of Leaves Showing Each Infestation Index: 1: index 1 = 1-25% infested area; for Number of Leaves Showing Each Infestation Index: 2: index 2 = 26-50% infested area; for Number of Leaves Showing Each Infestation Index: 3: index 3 = 51-100% infested area
# Diaporthe citri [10] = assay: Test of Residual Activity against Citrus Melanose; assay type: in vivo; settings: 1000 ppm, 23 mm/hr of rain; for Infested Leaves (%): 24 days after inoculation; for Infestation Rate: 24 days, (Σnf/4N)×100; for Number of Leaves Showing Each Infestation Index: 0: index 0 = 0-25% infested area; for Number of Leaves Showing Each Infestation Index: 1: index 1 = 26-50% infested area; for Number of Leaves Showing Each Infestation Index: 2: index 2 = 51-75% infested area; for Number of Leaves Showing Each Infestation Index: 3: index 3 = 76-90% infested area; for Number of Leaves Showing Each Infestation Index: 4: index 4 = 91-100% infested area
# TA-100 = assay: mutagenicity test (Ames test), TA-100; assay type: cell-based
# ichthyotoxicity = settings: killifish, in vivo; read-out: Tlm48
# Alternaria kikuchiana [11] = assay: Spore-germination Inhibiting Test; assay type: cell-based; settings: 10 ppm, 27° C., 20 hours
# Experimental: Spore-germination Inhibiting Test for Alternaria kukuchiana An apricot medium is inoculated with Alternaria kikuchiana and incubated at a temperature of 27° C. for 7-10 days to form conidia on the medium. […] 0.02 Ml of the prepared spore suspension containing the compound according to the present invention is dropped on a slide glass and incubated at a temperature of 27° C. under moist conditions for 20 hours. Thereafter, whether or not the spores germinate is examined under a microscope and the spore-germination rate is then calculated.
# [12] = test system: potted young pears (variety: Niju-seiki); assay: Phytotoxicity of treating compound, Pear Black Spot test; settings: 500 ppm, damaged area on leaves
# Experimental: as §3, §4
# *The phytotoxicity of the treating compound is evaluated according to the
# Diaporthe citri [13] = assay: Citrus Melanose-controlling Test; assay type: in vivo; settings: 500 ppm; for Infested Leaves (%): 24 days after inoculation; for Infestation Rate / Number of Leaves Showing Infestation Index 0 / Number of Leaves Showing Infestation Index 1 / Number of Leaves Showing Infestation Index 2 / Number of Leaves Showing Infestation Index 3 / Number of Leaves Showing Infestation Index 4: 24 days; for Infestation Rate: (Σnf/4N)×100; for Number of Leaves Showing Infestation Index 0: index 0 = 0-25% infested area; for Number of Leaves Showing Infestation Index 1: index 1 = 26-50% infested area; for Number of Leaves Showing Infestation Index 2: index 2 = 51-75% infested area; for Number of Leaves Showing Infestation Index 3: index 3 = 76-90% infested area; for Number of Leaves Showing Infestation Index 4: index 4 = 91-100% infested area
# crops and trees = settings: cited from earlier work
compound,measurement,setting,value
O=C1C=CC(=O)N1c1ccccc1 [N-phenylmaleimide],fungicidal effect,plant pathogens,has a fungicidal effect
"CCCCNC(=O)n1c(NC(=O)OC)nc2ccccc21 [benomyl, Methyl-1-(butylcarbamoyl)-2-benzimidazolecarbamate]",Phytotoxicity of Treating Compound,[1],- (0%)
same,Phytotoxicity of Treating Compound,[2],- (0%)
same,Infested Leaves (%),Elsinoe fawcetti,0.6%
same,Infestation Rate,Elsinoe fawcetti,0.2
same,Number of Leaves Showing Each Infestation Index: 0,Elsinoe fawcetti,328 leaves
same,Number of Leaves Showing Each Infestation Index: 1,Elsinoe fawcetti,2 leaves
same,Number of Leaves Showing Each Infestation Index: 2,Elsinoe fawcetti,0 leaves
same,Number of Leaves Showing Each Infestation Index: 3,Elsinoe fawcetti,0 leaves
same,Infested Leaves (%),Venturia inaequalis,0%
same,Infestation Rate,Venturia inaequalis,0
same,Number of Leaves Showing Each Infestation Index: 0,Venturia inaequalis,25 leaves
same,Number of Leaves Showing Each Infestation Index: 1,Venturia inaequalis,0 leaves
same,Number of Leaves Showing Each Infestation Index: 2,Venturia inaequalis,0 leaves
same,Number of Leaves Showing Each Infestation Index: 3,Venturia inaequalis,0 leaves
"O=C1C(Cl)=C(Cl)C(=O)N1c1ccc(OC(F)F)cc1 [compound 3, 2,3-dichloro-N-(p-difluoromethoxyphenyl)maleimide]",Phytotoxicity of Treating Compound,[3],- (0%)
same,Phytotoxicity of Treating Compound,[4],- (0%)
same,Phytotoxicity of Treating Compound,[5],- (0%)
same,Phytotoxicity of Treating Compound,[6],- (0%)
same,LD50,peroral acute toxicity,> 300 mg/kg
same,Average Infestation Rate (%) (Based on infested area),[7],0%
same,Phytotoxicity of Treating Compound,[1],- (0%)
same,Average Infestation Rate (%) (Based on infested area),Alternaria mali,0%
same,Phytotoxicity of Treating Compound,[2],- (0%)
same,Phytotoxicity of Treating Compound,"[8]; dilution × 500, 600 l/10 a",- (0%)
same,Phytotoxicity of Treating Compound,"[8]; dilution × 750, 600 l/10 a",- (0%)
same,Ames test TA-98,TA-98,negative
same,Average Infestation Rate (%) (Based on infested area),Alternaria kikuchiana [9],2%
same,Infested Leaves (%),Elsinoe fawcetti,0.6%
same,Infestation Rate,Elsinoe fawcetti,0.2
same,Number of Leaves Showing Each Infestation Index: 0,Elsinoe fawcetti,311 leaves
same,Number of Leaves Showing Each Infestation Index: 1,Elsinoe fawcetti,2 leaves
same,Number of Leaves Showing Each Infestation Index: 2,Elsinoe fawcetti,0 leaves
same,Number of Leaves Showing Each Infestation Index: 3,Elsinoe fawcetti,0 leaves
same,Infested Leaves (%),Phytophthora infestans,0%
same,Infestation Rate,Phytophthora infestans,0
same,Number of Leaves Showing Each Infestation Index: 0,Phytophthora infestans,20 leaves
same,Number of Leaves Showing Each Infestation Index: 1,Phytophthora infestans,0 leaves
same,Number of Leaves Showing Each Infestation Index: 2,Phytophthora infestans,0 leaves
same,Number of Leaves Showing Each Infestation Index: 3,Phytophthora infestans,0 leaves
same,Infested Leaves (%),Diaporthe citri [10],0%
same,Infestation Rate,Diaporthe citri [10],0
same,Number of Leaves Showing Each Infestation Index: 0,Diaporthe citri [10],187 leaves
same,Number of Leaves Showing Each Infestation Index: 1,Diaporthe citri [10],0 leaves
same,Number of Leaves Showing Each Infestation Index: 2,Diaporthe citri [10],0 leaves
same,Number of Leaves Showing Each Infestation Index: 3,Diaporthe citri [10],0 leaves
same,Number of Leaves Showing Each Infestation Index: 4,Diaporthe citri [10],0 leaves
same,Infested Leaves (%),Venturia inaequalis,0%
same,Infestation Rate,Venturia inaequalis,0
same,Number of Leaves Showing Each Infestation Index: 0,Venturia inaequalis,25 leaves
same,Number of Leaves Showing Each Infestation Index: 1,Venturia inaequalis,0 leaves
same,Number of Leaves Showing Each Infestation Index: 2,Venturia inaequalis,0 leaves
same,Number of Leaves Showing Each Infestation Index: 3,Venturia inaequalis,0 leaves
same,Ames test TA-100,TA-100,negative
same,LC50 at 48 h,ichthyotoxicity,> 10 mg/L
same,Spore-germination Rate (%),Alternaria kikuchiana [11],0%
same,Phytotoxicity of Treating Compound,[12],- (0%)
same,Infested Leaves (%),Diaporthe citri [13],0%
same,Infestation Rate,Diaporthe citri [13],0
same,Number of Leaves Showing Infestation Index 0,Diaporthe citri [13],271 leaves
same,Number of Leaves Showing Infestation Index 1,Diaporthe citri [13],0 leaves
same,Number of Leaves Showing Infestation Index 2,Diaporthe citri [13],0 leaves
same,Number of Leaves Showing Infestation Index 3,Diaporthe citri [13],0 leaves
same,Number of Leaves Showing Infestation Index 4,Diaporthe citri [13],0 leaves
"O=C1C(Cl)=C(Cl)C(=O)N1c1ccc(F)cc1 [fluoroimide, N(p-Fluorophenyl)-2,3-dichloromaleimide]",Phytotoxicity of Treating Compound,[5],+ (6-25%)
same,phytotoxicity,"crops and trees; pear trees, strawberries, beans, and very many other crops",severe phytotoxicity
same,leaf-burn,crops and trees; wide variety of crops and trees,liable to cause leaf-burn
same,Phytotoxicity of Treating Compound,"[8]; dilution × 500, 600 l/10 a",++ (26-50%)
same,Phytotoxicity of Treating Compound,"[8]; dilution × 750, 600 l/10 a",+ (6-25%)
ZnMnEthylenebisdithiocarbamate [mancozeb],Phytotoxicity of Treating Compound,[3],- (0%)
same,Phytotoxicity of Treating Compound,[4],- (0%)
same,Phytotoxicity of Treating Compound,[6],- (0%)
same,Infested Leaves (%),Phytophthora infestans,0%
same,Infestation Rate,Phytophthora infestans,0
same,Number of Leaves Showing Each Infestation Index: 0,Phytophthora infestans,20 leaves
same,Number of Leaves Showing Each Infestation Index: 1,Phytophthora infestans,0 leaves
same,Number of Leaves Showing Each Infestation Index: 2,Phytophthora infestans,0 leaves
same,Number of Leaves Showing Each Infestation Index: 3,Phytophthora infestans,0 leaves
same,Infested Leaves (%),Diaporthe citri [10],0%
same,Infestation Rate,Diaporthe citri [10],0
same,Number of Leaves Showing Each Infestation Index: 0,Diaporthe citri [10],159 leaves
same,Number of Leaves Showing Each Infestation Index: 1,Diaporthe citri [10],0 leaves
same,Number of Leaves Showing Each Infestation Index: 2,Diaporthe citri [10],0 leaves
same,Number of Leaves Showing Each Infestation Index: 3,Diaporthe citri [10],0 leaves
same,Number of Leaves Showing Each Infestation Index: 4,Diaporthe citri [10],0 leaves
same,Infested Leaves (%),Diaporthe citri [13],0%
same,Infestation Rate,Diaporthe citri [13],0
same,Number of Leaves Showing Infestation Index 0,Diaporthe citri [13],204 leaves
same,Number of Leaves Showing Infestation Index 1,Diaporthe citri [13],0 leaves
same,Number of Leaves Showing Infestation Index 2,Diaporthe citri [13],0 leaves
same,Number of Leaves Showing Infestation Index 3,Diaporthe citri [13],0 leaves
same,Number of Leaves Showing Infestation Index 4,Diaporthe citri [13],0 leaves
